{"source": "patent EP0601520A1", "about": "“Trifluorothymidine derivatives, process for producing the same and anti-cancer agent containing the same” (MITSUI TOATSU CHEMICALS, Inc., priority 1992, dated 1994)", "key": {"[1]": {"experiment": "Bodyweight change of the tumor-carrying mice in the anti-tumor activity test", "format": "in vivo, CDF₁ mice", "excerpt": "(§1) The compound obtained in Examples 1, 4, 9 or 11 was uniformly suspended in 0.5% aqueous methylcellulose solution. The compound obtained in Example 14 was uniformly suspended in 0.5% aqueous methylcellulose solution containing 0.1% TWEEN 80.\n(§2) For the compounds obtained in Examples 1, 4, 9 and 11, female CDF₁ mice of 7 weeks old were used. For the compound obtained in Example 14, female CDF₁ mice of 6 weeks old were used. Each group consisted of 5 or 6 animals.\n(§3) To the right abdomen of each mouse, 2 x 10⁶ tumor cells were subcutaneously transplanted. On the next day (day 1), the mice were randomly grouped and the suspension was compulsively administered to the mice by using an oral sound for successive 7 days (day 1 - day 7)."}, "Meth A fibrosarcoma": {"test_system": "Meth A fibrosarcoma", "experiment": "Anti-tumor activity, subcutaneously transplanted Meth A fibrosarcoma in mice, oral administration", "format": "in vivo, CDF₁ mice", "settings": "tumors weighed on day 14", "excerpt": "as §1, §2\nAs the tumor, Meth A fibrosarcoma was used.\nas §3\nOn day 14, the tumors were removed and weighed. The tumor growth ratio (%) was calculated according to the following equation: Tumor Growth Ratio (%) = T/C x 100 [formula] wherein T means the average weight of tumor of the treated group and C means the average weight of tumor of the control group. The results about the compounds obtained in Examples 1, 4, 9 and 11 are shown in Table 2, and the results about the compound obtained in Example 14 are shown in Table 3. In Table 2, \"HCFU\" means 1-hexyl carbamoyl-5-fluorouracil known as \"Carmofur\"."}, "[2]": {"settings": "dose 100.0 mg/kg, Table 2 experiment, female CDF₁ mice"}}}
{"compound": "C#CCO[C@H]1C[C@H](n2cc(C(F)(F)F)c(=O)[nH]c2=O)O[C@@H]1COC(=S)c1ccc(C)cc1", "note": "[Example 1, 3'-O-propargyl-5'-O-(4-methyl-thiobenzoyl)-α,α,α-trifluorothymidine]", "values": [{"measurement": "Bodyweight Change", "setting": "[1]; dose 14.0 mg/kg oral, day 1 - day 7, female CDF₁ mice 7 weeks old, 0.5% methylcellulose suspension", "result": -0.4, "unit": "g"}, {"measurement": "Bodyweight Change", "setting": "[1]; dose 56.1 mg/kg oral, day 1 - day 7, female CDF₁ mice 7 weeks old, 0.5% methylcellulose suspension", "result": -3.2, "unit": "g"}, {"measurement": "Tumor Weight Ratio (T/C:%)", "setting": "Meth A fibrosarcoma; dose 14.0 mg/kg oral, day 1 - day 7, female CDF₁ mice 7 weeks old", "result": 28.4, "unit": "%"}, {"measurement": "Tumor Weight Ratio (T/C:%)", "setting": "Meth A fibrosarcoma; dose 56.1 mg/kg oral, day 1 - day 7, female CDF₁ mice 7 weeks old", "result": 7.1, "unit": "%"}]}
{"compound": "C#CCO[C@H]1C[C@H](n2cc(C(F)(F)F)c(=O)[nH]c2=O)O[C@@H]1COC(=S)c1ccc(Cl)cc1", "note": "[Example 4, 3'-O-propargyl-5'-O-(4-chlorothiobenzoyl)-α,α,α-trifluorothymidine]", "values": [{"measurement": "Bodyweight Change", "setting": "[1]; dose 14.6 mg/kg oral, day 1 - day 7, female CDF₁ mice 7 weeks old, 0.5% methylcellulose suspension", "result": -0.8, "unit": "g"}, {"measurement": "Bodyweight Change", "setting": "[1]; dose 58.5 mg/kg oral, day 1 - day 7, female CDF₁ mice 7 weeks old, 0.5% methylcellulose suspension", "result": -3.8, "unit": "g"}, {"measurement": "Tumor Weight Ratio (T/C:%)", "setting": "Meth A fibrosarcoma; dose 14.6 mg/kg oral, day 1 - day 7, female CDF₁ mice 7 weeks old", "result": 23.3, "unit": "%"}, {"measurement": "Tumor Weight Ratio (T/C:%)", "setting": "Meth A fibrosarcoma; dose 58.5 mg/kg oral, day 1 - day 7, female CDF₁ mice 7 weeks old", "result": 4.8, "unit": "%"}]}
{"compound": "C#CCO[C@H]1C[C@H](n2cc(C(F)(F)F)c(=O)[nH]c2=O)O[C@@H]1COC(=S)c1ccc(SC)cc1", "note": "[Example 9, 3'-O-propargyl-5'-O-(4-thiomethylthiobenzoyl)-α,α,α-trifluorothymidine]", "values": [{"measurement": "Bodyweight Change", "setting": "[1]; dose 15.0 mg/kg oral, day 1 - day 7, female CDF₁ mice 7 weeks old, 0.5% methylcellulose suspension", "result": -0.9, "unit": "g"}, {"measurement": "Bodyweight Change", "setting": "[1]; dose 60.0 mg/kg oral, day 1 - day 7, female CDF₁ mice 7 weeks old, 0.5% methylcellulose suspension", "result": -4.3, "unit": "g"}, {"measurement": "Tumor Weight Ratio (T/C:%)", "setting": "Meth A fibrosarcoma; dose 15.0 mg/kg oral, day 1 - day 7, female CDF₁ mice 7 weeks old", "result": 22.5, "unit": "%"}, {"measurement": "Tumor Weight Ratio (T/C:%)", "setting": "Meth A fibrosarcoma; dose 60.0 mg/kg oral, day 1 - day 7, female CDF₁ mice 7 weeks old", "result": 5.1, "unit": "%"}]}
{"compound": "C#CCO[C@H]1C[C@H](n2cc(C(F)(F)F)c(=O)[nH]c2=O)O[C@@H]1COC(=S)c1cccs1", "note": "[Example 11, 3'-O-propargyl-5'-O-(2-thiophenecarbothionyl)-α,α,α-trifluorothymidine]", "values": [{"measurement": "Bodyweight Change", "setting": "[1]; dose 13.8 mg/kg oral, day 1 - day 7, female CDF₁ mice 7 weeks old, 0.5% methylcellulose suspension", "result": -0.7, "unit": "g"}, {"measurement": "Bodyweight Change", "setting": "[1]; dose 55.1 mg/kg oral, day 1 - day 7, female CDF₁ mice 7 weeks old, 0.5% methylcellulose suspension", "result": -4.4, "unit": "g"}, {"measurement": "Tumor Weight Ratio (T/C:%)", "setting": "Meth A fibrosarcoma; dose 13.8 mg/kg oral, day 1 - day 7, female CDF₁ mice 7 weeks old", "result": 27.6, "unit": "%"}, {"measurement": "Tumor Weight Ratio (T/C:%)", "setting": "Meth A fibrosarcoma; dose 55.1 mg/kg oral, day 1 - day 7, female CDF₁ mice 7 weeks old", "result": 5.8, "unit": "%"}]}
{"compound": "C#CCO[C@H]1C[C@H](n2cc(C(F)(F)F)c(=O)[nH]c2=O)O[C@@H]1COC(=S)c1ccccc1", "note": "[Example 14, 3'-O-propargyl-5'-O-thiobenzoyl-α,α,α-trifluorothymidine]", "values": [{"measurement": "Bodyweight Change", "setting": "[1]; dose 13.6 mg/kg oral, day 1 - day 7, female CDF₁ mice 6 weeks old, 0.5% methylcellulose containing 0.1% TWEEN 80", "result": -0.5, "unit": "g"}, {"measurement": "Bodyweight Change", "setting": "[1]; dose 54.4 mg/kg oral, day 1 - day 7, female CDF₁ mice 6 weeks old, 0.5% methylcellulose containing 0.1% TWEEN 80", "result": -3.7, "unit": "g"}, {"measurement": "Tumor Weight Ratio (T/C:%)", "setting": "Meth A fibrosarcoma; dose 13.6 mg/kg oral, day 1 - day 7, female CDF₁ mice 6 weeks old", "result": 29.4, "unit": "%"}, {"measurement": "Tumor Weight Ratio (T/C:%)", "setting": "Meth A fibrosarcoma; dose 54.4 mg/kg oral, day 1 - day 7, female CDF₁ mice 6 weeks old", "result": 7.2, "unit": "%"}]}
{"compound": "CCCCCCNC(=O)n1cc(F)c(=O)[nH]c1=O", "note": "[HCFU, 1-hexyl carbamoyl-5-fluorouracil, reference compound]", "values": [{"measurement": "Bodyweight Change", "setting": "[1]; [2]", "result": -2.0, "unit": "g"}, {"measurement": "Tumor Weight Ratio (T/C:%)", "setting": "Meth A fibrosarcoma; [2]", "result": 18.0, "unit": "%"}]}
